Drawing on patent US20250034159A1, “INHIBITORS OF EPIDERMAL GROWTH FACTOR RECEPTOR” (ORIC Pharmaceuticals, Inc., priority 2021, published 2025), this text covers IC50 for 2 molecules.

Assay [1] addresses recombinant human EGFR L858R/C797S double mutant protein (Homo sapiens (Human), UniProt P00533, C797S/L858R). The assay can be described thus: Biological Activity Assay B: biochemical assay against EGFR L858R/C797S protein (EGFR LR/CS). In a few lines:
(§1)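 IC50 values were fitted with a 4-parameter model to reaction slopes taken from 90 kinetic reads spaced 120 s apart. The Phosphosens sensor/ATP working solution was 40 uM/4 mM, and compound was dosed as 16-point dilutions at 2.5% final DMSO.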

Assay [2] concerns the target recombinant human EGFR exon 19 deletion/C797S double mutant protein (Homo sapiens (Human), UniProt P00533, C797S/DEL746-750). Description: Biological Activity Assay C: biochemical assay against EGFR exon 19 deletion/C797S protein (EGFR d19/CS). The essentials: as §1
A further assay concerns Ba/F3_EGFR WT cells. Description: Biological Activity Assay D: BaF3 cell proliferation assay, EGFR wild-type (BaF3 WT). It counts as cell-based. Conditions: Ba/F3 EGFR; Ba/F3_EGFR WT cells, ~72 hours, CellTiter-Glo; read-out: BaF3 WT IC50.
A further assay deals with BaF3_EGFR LR/CS cells. Description: Biological Activity Assay D: BaF3 cell proliferation assay, EGFR L858R/C797S mutant (BaF3 LR/CS). It counts as cell-based. Conditions: Ba/F3 EGFR; BaF3_EGFR LR/CS cells, ~72 hours, CellTiter-Glo; read-out: BaF3 LR/CS IC50.
Another assay relates to BaF3_EGFR d19/CS cells. Description: Biological Activity Assay D: BaF3 cell proliferation assay, EGFR exon 19 deletion/C797S (BaF3 d19/CS). It counts as cell-based. To be noted: Ba/F3 EGFR; BaF3_EGFR d19/CS cells, ~72 hours, CellTiter-Glo; read-out: BaF3 d19/CS IC50. (Cellular ATP, detected with luciferase, serves as a proxy for viable cell number.)

Structures are written as SMILES. pIC50: −log10 of the molar value.

recombinant human EGFR L858R/C797S double mutant protein, sequence (P00533 25-1210 C797S/L858R): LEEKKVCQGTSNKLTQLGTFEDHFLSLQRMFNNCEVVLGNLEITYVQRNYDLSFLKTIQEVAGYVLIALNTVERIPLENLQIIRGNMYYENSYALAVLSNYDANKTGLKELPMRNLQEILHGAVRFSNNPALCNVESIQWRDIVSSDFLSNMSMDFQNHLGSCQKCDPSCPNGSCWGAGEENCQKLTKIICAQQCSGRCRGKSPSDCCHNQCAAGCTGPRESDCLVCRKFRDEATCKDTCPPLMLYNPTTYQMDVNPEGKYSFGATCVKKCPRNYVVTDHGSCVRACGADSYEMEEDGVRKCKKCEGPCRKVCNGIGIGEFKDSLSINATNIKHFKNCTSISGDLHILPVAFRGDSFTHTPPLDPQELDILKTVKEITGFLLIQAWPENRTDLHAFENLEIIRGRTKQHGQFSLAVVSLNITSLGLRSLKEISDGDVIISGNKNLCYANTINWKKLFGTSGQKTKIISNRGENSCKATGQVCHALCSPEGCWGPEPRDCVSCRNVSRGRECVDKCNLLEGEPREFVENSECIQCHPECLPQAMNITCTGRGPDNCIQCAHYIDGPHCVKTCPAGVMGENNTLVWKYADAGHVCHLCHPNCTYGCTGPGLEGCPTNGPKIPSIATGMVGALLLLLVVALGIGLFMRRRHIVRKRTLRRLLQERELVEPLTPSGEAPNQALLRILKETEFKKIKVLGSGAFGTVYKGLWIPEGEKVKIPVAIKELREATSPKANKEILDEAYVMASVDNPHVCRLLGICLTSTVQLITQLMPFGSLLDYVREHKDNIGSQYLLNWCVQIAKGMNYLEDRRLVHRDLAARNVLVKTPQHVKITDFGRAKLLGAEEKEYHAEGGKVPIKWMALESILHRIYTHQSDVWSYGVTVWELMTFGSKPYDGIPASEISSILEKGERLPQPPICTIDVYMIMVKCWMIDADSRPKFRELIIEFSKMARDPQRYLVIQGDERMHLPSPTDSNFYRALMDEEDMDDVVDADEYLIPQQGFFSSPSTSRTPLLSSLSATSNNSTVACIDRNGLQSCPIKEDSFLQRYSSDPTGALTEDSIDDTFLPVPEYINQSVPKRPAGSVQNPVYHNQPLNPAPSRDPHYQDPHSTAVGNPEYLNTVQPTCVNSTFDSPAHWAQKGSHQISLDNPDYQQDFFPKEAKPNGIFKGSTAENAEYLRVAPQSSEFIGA
recombinant human EGFR exon 19 deletion/C797S double mutant protein, sequence (P00533 other isoform, or with tags, fused parts or gaps C797S/del 1-668/del 746-750 limits assumed): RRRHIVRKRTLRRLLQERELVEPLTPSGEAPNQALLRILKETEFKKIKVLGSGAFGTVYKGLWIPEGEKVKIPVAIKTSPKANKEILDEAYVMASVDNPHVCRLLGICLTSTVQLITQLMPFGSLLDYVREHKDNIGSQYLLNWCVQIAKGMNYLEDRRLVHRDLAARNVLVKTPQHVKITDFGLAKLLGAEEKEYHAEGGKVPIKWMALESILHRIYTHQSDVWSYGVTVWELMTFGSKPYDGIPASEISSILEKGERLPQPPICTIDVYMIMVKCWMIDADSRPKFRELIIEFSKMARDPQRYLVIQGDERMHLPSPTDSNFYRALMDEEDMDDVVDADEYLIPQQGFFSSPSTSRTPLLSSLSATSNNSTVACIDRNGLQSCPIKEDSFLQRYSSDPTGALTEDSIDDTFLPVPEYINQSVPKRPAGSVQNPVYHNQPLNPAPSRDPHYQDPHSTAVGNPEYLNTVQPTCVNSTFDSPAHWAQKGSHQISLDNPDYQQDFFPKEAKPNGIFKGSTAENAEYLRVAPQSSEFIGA

For the molecule `O=S1(=O)CC(Cn2cc(-c3ncnc4oc(-c5ccccc5)cc34)c(-c3ccc(F)cc3)n2)C1` [Example 98, 3-{[3-(4-fluorophenyl)-4-(6-phenylfuro[2,3-d]pyrimidin-4-yl)-1H-pyrazol-1-yl]methyl}-1λ6-thietane-1,1-dione], the pIC50 was 9.09 in assay [1]; 8.90 in assay [2]; 5.73 in the assay on Ba/F3_EGFR WT cells; 6.79 in the assay on BaF3_EGFR LR/CS cells; 6.67 in the assay on BaF3_EGFR d19/CS cells.
Take `CS(=O)(=O)n1ncc(-c2ncnc3oc(-c4ccccc4)cc23)c1-c1ccc(F)cc1` [Example 56, 4-[5-(4-fluorophenyl)-1-(methanesulfonyl)-1H-pyrazol-4-yl]-6-phenylfuro[2,3-d]pyrimidine]: the pIC50 in assay [1] was 8.45; in assay [2] it was 8.34; in the assay with Ba/F3_EGFR WT cells, 5.26; in the assay on BaF3_EGFR LR/CS cells, 6.65; in the assay on BaF3_EGFR d19/CS cells, 6.73.
